{
  "source": "paper PMC7385433",
  "about": "(International Journal of Antimicrobial Agents, 2020)",
  "key": {"[1]": {"system": "Burkholderia pseudomallei K96243", "type": "in vivo, BALB/c mice", "settings": "for survival at 30 days post-infection: n = 5"}, "[2]": {"system": "Burkholderia pseudomallei K96243", "parameters": "species or system Galleria mellonella", "settings": "for larvae whose haemolymph was sterile of any bacteria / survival of Galleria larvae: in vivo"}, "[3]": {"system": "gyrase and topoisomerase IV", "settings": "cited from earlier work"}, "[4]": {"settings": "not told; cited from earlier work"}, "B. pseudomallei [5]": {"system": "B. pseudomallei", "test": "microbe, parasite or virus in culture", "type": "cell-based", "settings": "Burkholderia pseudomallei, read-out: minimum inhibitory concentration (MIC)"}, "[6]": {"settings": "in vivo"}, "in vivo": {"test": "in vivo", "settings": "female, BALB/c, mouse, ip, 15 mg/kg"}, "B. pseudomallei [7]": {"system": "B. pseudomallei", "settings": "ip; cited from earlier work"}},
  "data": [
    {"molecule": "CC(C)(O/N=C(\\C(=O)N[C@@H]1C(=O)N2C(C(=O)[O-])=C(C[n+]3ccccc3)CS[C@H]12)c1csc(N)n1)C(=O)O", "note": "[ceftazidime]", "values": [
      {"measurement": "B. pseudomallei present in lungs of surviving mice", "setting": "[1]; mouse, in vivo", "value": "two of three"},
      {"measurement": "bacteria in spleen of surviving mice", "setting": "[1]; mouse, in vivo", "value": "> 1 × 10^7 CFU"},
      {"measurement": "survival at 30 days post-infection", "setting": "[1]", "value": 60, "unit": "%"}
    ]},
    {"molecule": "CO[C@@H]1[C@@H](OC(=O)c2ccc(C)[nH]2)[C@@H](O)[C@H](Oc2ccc3c(O)c(NC(=O)c4ccc(O)c(CC=C(C)C)c4)c(=O)oc3c2Cl)OC1(C)C", "note": "[clorobiocin]", "values": [
      {"measurement": "bacterial load in haemolymph (killing activity in vivo)", "setting": "[2]", "value": "significantly reduced the bacterial load"},
      {"measurement": "larvae whose haemolymph was sterile of any bacteria", "setting": "[2]", "value": 100, "unit": "%"},
      {"measurement": "survival of Galleria larvae", "setting": "[2]", "value": "all Galleria larvae survived"},
      {"measurement": "potency as inhibitor of gyrase and topoisomerase IV relative to novobiocin", "setting": "[3]", "value": "more potent inhibitor"},
      {"measurement": "membrane permeability compared with novobiocin", "setting": "[4]", "value": "improved membrane permeability"}
    ]},
    {"molecule": "CO[C@@H]1[C@@H](OC(N)=O)[C@@H](O)[C@H](Oc2ccc3c(O)c(NC(=O)c4ccc(O)c(CC=C(C)C)c4)c(=O)oc3c2C)OC1(C)C", "note": "[novobiocin]", "values": [
      {"measurement": "MIC", "setting": "B. pseudomallei [5]", "value": "< 10", "unit": "µg/mL"},
      {"measurement": "bacterial load in haemolymph (killing activity in vivo)", "setting": "[2]", "value": "no significant killing activity"},
      {"measurement": "survival of Galleria larvae", "setting": "[2]", "value": "no larvae treated with novobiocin survived longer than 24 h post-infection"},
      {"measurement": "effect of DL-tryptophan on drug accumulation in tissue", "setting": "[6]", "value": "No significant effect on drug accumulation in adipose or haemolymphatic tissue"},
      {"measurement": "AUC", "setting": "in vivo", "value": 33.2, "unit": "µM·h"},
      {"measurement": "AUC(0-inf)", "setting": "in vivo", "value": 33.2, "unit": "µM·h"},
      {"measurement": "AUC(0-t)", "setting": "in vivo", "value": 33.2, "unit": "µM·h"},
      {"measurement": "Cmax", "setting": "in vivo", "value": 10.7, "unit": "µM"},
      {"measurement": "Tmax", "setting": "in vivo", "value": 1, "unit": "h"},
      {"measurement": "half-life", "setting": "in vivo; t1/2", "value": 2.8, "unit": "h"}
    ]},
    {"molecule": "coumermycin", "values": [
      {"measurement": "bacterial load in haemolymph (killing activity in vivo)", "setting": "[2]", "value": "significantly reduced the bacterial load"},
      {"measurement": "larvae whose haemolymph was sterile of any bacteria", "setting": "[2]", "value": 60, "unit": "%"},
      {"measurement": "survival of Galleria larvae", "setting": "[2]", "value": "all Galleria larvae survived"},
      {"measurement": "units with complete organ sterility", "setting": "[1]; mouse, in vivo", "value": 40, "unit": "%"},
      {"measurement": "survival at 30 days post-infection", "setting": "[1]", "value": 40, "unit": "%"},
      {"measurement": "activity against multiple strains of B. pseudomallei in vivo", "setting": "B. pseudomallei [7]", "value": "significant activity"}
    ]}
  ]
}
